Here are results for 23 molecules from patent US9315458B2, “Nitrogen-containing heterocyclic compound” (Takeda Pharmaceutical Company Limited, priority 2014, dated 2016).

This assay addresses T1, human M1 receptor (hCHRM1) (Homo sapiens, UniProt P11229).
T1 construct: expressed in transfected cells
T1 sequence (P11229 1-460): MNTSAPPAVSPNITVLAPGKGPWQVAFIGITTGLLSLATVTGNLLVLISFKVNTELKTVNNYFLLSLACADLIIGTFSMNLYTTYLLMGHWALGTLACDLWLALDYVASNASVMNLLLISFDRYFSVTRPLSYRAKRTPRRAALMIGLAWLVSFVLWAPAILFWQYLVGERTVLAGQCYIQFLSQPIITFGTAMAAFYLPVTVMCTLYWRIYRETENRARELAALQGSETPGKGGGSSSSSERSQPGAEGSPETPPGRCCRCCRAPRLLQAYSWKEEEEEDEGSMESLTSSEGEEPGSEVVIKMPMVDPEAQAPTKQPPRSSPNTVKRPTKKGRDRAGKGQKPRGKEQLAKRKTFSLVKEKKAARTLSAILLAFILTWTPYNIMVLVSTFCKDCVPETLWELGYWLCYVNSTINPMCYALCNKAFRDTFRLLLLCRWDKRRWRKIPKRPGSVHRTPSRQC
Put plainly: Measurement of M1 receptor positive allosteric modulator (M1PAM) activity, calcium fluorescence (FLIPRtetra) with acetylcholine at EC20. It counts as cell-based. To be noted: for activity (%) at 10 μM: 10 μM test compound, 100% = acetylcholine 1 μM, 0% = DMSO, acetylcholine at EC20; for EC50: inflection point of concentration-dependent curve, CHO-K1 cells expressing hCHRM1, acetylcholine at EC20 (final 0.6-0.8 nM), read-out: IP value. How it is done:
The activity of a test compound in the presence of acetylcholine at EC20 concentration (final concentration 0.6-0.8 nM), which affords an action corresponding to about 20% of the maximum activity, was measured as PAM activity. The method is as follows. CHO-K1 cells stably expressing a human M1 receptor (hCHRM1) were plated on a 384-well black clear bottom plate (BD Falcon) at 5,000 cells/well, and cultured in an incubator at 37° C., 5% CO2 for 1 day. The medium in the cell plate was removed, and assay buffer A (Recording medium (DOJINDO LABORATORIES), 0.1% BSA (Wako Pure Chemical Industries, Ltd.), 2.5 μg/mL Fluo-4 AM (DOJINDO LABORATORIES), 0.08% Pluronic F127 (DOJINDO LABORATORIES), 1.25 mM probenecid (DOJINDO LABORATORIES)) containing a calcium indicator was added at 30 μL/well. The cells were left standing in the incubator at 37° C., 5% CO2 for 30 min, and further left standing at room temperature for 30 min. A test compound prepared by diluting with assay buffer B (HBSS (Invitrogen), 20 mM HEPES (Invitrogen), 0.1% BSA) containing 2.4-3.2 nM acetylcholine was added at 10 μL/well, and the fluorescence was measured by FLIPRtetra (Molecular Devices) for 1 min every 1 second. With the definition that the amount of change in the fluorescence on addition of acetylcholine (final concentration 1 μM) is 100% and that on addition of DMSO instead of a test compound is 0%, the activity (%) of the test compound was calculated, and the inflection point in the concentration-dependent curve of the test compound was calculated as IP values.

With `CNC(=O)c1ccc(Cc2cc3c(c(C)c2C)CN([C@H]2CCC[C@@H]2O)C3=O)cc1F` [Example 123, 2-fluoro-4-((2-((1S,2S)-2-hydroxycyclopentyl)-6,7-dimethyl-3-oxo-2,3-dihydro-1H-isoindol-5-yl)methyl)-N-methylbenzamide], the “activity (%) at 10 μM” value is recorded as 90% and the EC50 was 2.1 nM.

On to `Cc1c(Cc2ccc(-c3ccn(C)n3)cc2)cc2c(c1F)CN([C@H]1CCC[C@@H]1O)C2=O` [Example 111, 4-fluoro-2-((1S,2S)-2-hydroxycyclopentyl)-5-methyl-6-(4-(1-methyl-1H-pyrazol-3-yl)benzyl)isoindolin-1-one], for which the “activity (%) at 10 μM” value amounted to 103% and the EC50 came to 26 nM.

For `COc1ccc(Cc2cc3c(c(F)c2C)CN([C@H]2COCC[C@@H]2O)C3=O)cc1` [Example 150, 4-fluoro-2-[(3S,4S)-4-hydroxytetrahydro-2H-pyran-3-yl]-6-(4-methoxybenzyl)-5-methyl-2,3-dihydro-1H-isoindol-1-one], the “activity (%) at 10 μM” value stood at 89% and the EC50 amounted to 14 nM.

For the molecule `COc1ccc(Cc2cc3c(cc2C)CN([C@H]2COCC[C@@H]2O)C3=O)cc1` [Example 164, 2-[(3S,4S)-4-hydroxytetrahydro-2H-pyran-3-yl]-6-(4-methoxybenzyl)-5-methyl-2,3-dihydro-1H-isoindol-1-one], the “activity (%) at 10 μM” value worked out at 102% and the EC50 turned out to be 62 nM.

On to `Cc1c(Cc2ccc(-n3cccn3)cc2F)cc2c(c1C)CN(C[C@@H]1CCCO1)C2=O` [Example 115, 6-(2-fluoro-4-(1H-pyrazol-1-yl)benzyl)-4,5-dimethyl-2-((2S)-tetrahydrofuran-2-ylmethyl)isoindolin-2-one], for which the “activity (%) at 10 μM” value came to 92% and the EC50 was 25 nM.

`Cc1cc2c(cc1Cc1ccc(-c3cn(C)nn3)cc1F)C(=O)N([C@H]1CCC[C@@H]1O)C2` (racemic) [Example 53, rac-6-(2-fluoro-4-(1-methyl-1H-1,2,3-triazol-4-yl)benzyl)-2-(trans-2-hydroxycyclopentyl)-5-methylisoindolin-1-one]: the “activity (%) at 10 μM” value stood at 103% and the EC50 was 28 nM.

Take `CCc1cc2c(cc1Cc1ccc(-c3ccn(C)n3)cc1)C(=O)N([C@H]1CCC[C@@H]1O)C2` (racemic) [Example 63, rac-5-ethyl-2-(trans-2-hydroxycyclopentyl)-6-(4-(1-methyl-1H-pyrazol-3-yl)benzyl)isoindolin-1-one]: the “activity (%) at 10 μM” value was 99% and the EC50 came to 45 nM.

Turning to `Cc1c(Cc2ccc(-c3ccn(C)n3)cc2)cc2c(c1C)CN([C@H]1CCC[C@@H]1O)C2=O` [Example 13, 2-((1S,2S)-2-hydroxycyclopentyl)-4,5-dimethyl-6-(4-(1-methyl-1H-pyrazol-3-yl)benzyl)isoindolin-1-one], the “activity (%) at 10 μM” value turned out to be 104% and the EC50 was 7.9 nM.

For `COc1ccc(Cc2cc3c(c(C)c2C)CN([C@H]2CCCC[C@@H]2O)C3=O)cc1` [Example 141, 2-((1S,2S)-2-hydroxycyclohexyl)-6-(4-methoxybenzyl)-4,5-dimethylisoindolin-1-one], the “activity (%) at 10 μM” value is listed as 106% and the EC50 was found to be 18 nM.

For the molecule `Cc1c(Cc2ccc(-c3cnn(C)c3)nc2)cc2c(c1C)CN([C@H]1CCCC[C@@H]1O)C2=O` (racemic) [Example 28, rac-2-(trans-2-hydroxycyclohexyl)-4,5-dimethyl-6-((6-(1-methyl-1H-pyrazol-4-yl)pyridin-3-yl)methyl)isoindolin-1-one], the “activity (%) at 10 μM” value is recorded as 106% and the EC50 worked out at 4.8 nM.

Take `COc1ccc(Cc2cc3c(cc2C)CN([C@H]2CCCC[C@@H]2O)C3=O)cc1` [Example 167, 2-((1S,2S)-2-hydroxycyclohexyl)-6-(4-methoxybenzyl)-5-methylisoindolin-1-one]: the “activity (%) at 10 μM” value turned out to be 95% and the EC50 amounted to 30 nM.

With `Cc1cc2c(cc1Cc1ccc(-c3ccn(C)n3)nc1)C(=O)N([C@H]1CCCC[C@@H]1O)C2` (racemic) [Example 42, rac-2-(trans-2-hydroxycyclohexyl)-5-methyl-6-((6-(1-methyl-1H-pyrazol-3-yl)pyridin-3-yl)methyl)isoindolin-1-one], the “activity (%) at 10 μM” value came to 115% and the EC50 is 9.2 nM.

Turning to `CCc1cc2c(cc1Cc1ccc(-n3cccn3)cc1)C(=O)N([C@H]1CCC[C@@H]1O)C2` (racemic) [Example 59, rac-5-ethyl-2-(trans-2-hydroxycyclopentyl)-6-(4-(1H-pyrazol-1-yl)benzyl)isoindolin-1-one], the “activity (%) at 10 μM” value worked out at 100% and the EC50 was 34 nM.

`Cc1c(Cc2ccc(-n3cccn3)cc2)cc2c(c1C)CN([C@H]1COCC[C@@H]1O)C2=O` (racemic) [Example 35, rac-2-(trans-4-hydroxytetrahydro-2H-pyran-3-yl)-4,5-dimethyl-6-(4-(1H-pyrazol-1-yl)benzyl)-2,3-dihydro-1H-isoindol-1-one]: the “activity (%) at 10 μM” value is reported as 103% and the EC50 is 3.9 nM.

With `Cn1cc(-c2ccc(Cc3cc4c(cc3Cl)CN(CC3CCCO3)C4=O)cc2)nn1` (stereo not shown) [Example 60, 5-chloro-6-(4-(1-methyl-1H-1,2,3-triazol-4-yl)benzyl)-2-(tetrahydrofuran-2-ylmethyl)isoindolin-1-one], the “activity (%) at 10 μM” value is 94% and the EC50 came out at 72 nM.

For the molecule `Cc1c(Cc2ccc(-c3ccn(C)n3)cc2)cc2c(c1C)CN(C[C@@H]1CCCO1)C2=O` [Example 109, 4,5-dimethyl-6-(4-(1-methyl-1H-pyrazol-3-yl)benzyl)-2-((2S)-tetrahydrofuran-2-ylmethyl)isoindolin-1-one], the “activity (%) at 10 μM” value amounted to 100% and the EC50 was found to be 23 nM.

Consider `COc1c(Cc2ccc(-n3cccn3)cc2)cc2c(c1F)CN([C@H]1CCCC[C@@H]1O)C2=O` (racemic) [Example 97, rac-4-fluoro-2-(trans-2-hydroxycyclohexyl)-5-methoxy-6-(4-(1H-pyrazol-1-yl)benzyl)isoindolin-1-one], for which the “activity (%) at 10 μM” value came out at 96% and the EC50 is 5.3 nM.

`Cc1cc2c(cc1Cc1ccc(-n3cccn3)cc1)C(=O)N(CC(C)(C)O)C2` [Example 104, 2-(2-hydroxy-2-methylpropyl)-5-methyl-6-(4-(1H-pyrazol-1-yl)benzyl)isoindolin-1-one]: the “activity (%) at 10 μM” value is listed as 101% and the EC50 was 54 nM.

Consider `CNC(=O)c1ccc(Cc2cc3c(c(C)c2C)CN(C[C@@H]2CCCO2)C3=O)cc1F` [Example 139, 4-((6,7-dimethyl-3-oxo-2-((2S)-tetrahydrofuran-2-ylmethyl)-2,3-dihydro-1H-isoindol-5-yl)methyl)-2-fluoro-N-methylbenzamide], for which the “activity (%) at 10 μM” value came out at 102% and the EC50 was 14 nM.

In the case of `Cc1c(Cc2ccc(-c3cnn(C)c3)cc2)cc2c(c1C)CN(CC1CCCO1)C2=O` (stereo not shown) [Example 84, 4,5-dimethyl-6-(4-(1-methyl-1H-pyrazol-4-yl)benzyl)-2-(tetrahydrofuran-2-ylmethyl)isoindolin-1-one], the “activity (%) at 10 μM” value turned out to be 104% and the EC50 was found to be 52 nM.

Take `Cn1cc(-c2ccc(Cc3cc4c(cc3C3CC3)CN(CC3CCCO3)C4=O)cc2)nn1` (stereo not shown) [Example 61, 5-cyclopropyl-6-(4-(1-methyl-1H-1,2,3-triazol-4-yl)benzyl)-2-(tetrahydrofuran-2-ylmethyl)isoindolin-1-one]: the “activity (%) at 10 μM” value worked out at 97% and the EC50 stood at 35 nM.

`COc1cc(Cc2cc3c(c(C)c2C)CN([C@H]2COCC[C@@H]2O)C3=O)ccc1F` [Example 23, 1,5-anhydro-2,4-dideoxy-2-(6-(4-fluoro-3-methoxybenzyl)-4,5-dimethyl-1-oxo-1,3-dihydro-2H-isoindol-2-yl)-L-threo-pentitol]: the “activity (%) at 10 μM” value stood at 100% and the EC50 stood at 46 nM.

As to `COc1ccc(Cc2cc3c(c(C)c2C)CN([C@H]2COCC[C@@H]2O)C3=O)cc1C` [Example 160, 2-[(3S,4S)-4-hydroxytetrahydro-2H-pyran-3-yl]-6-(4-methoxy-3-methylbenzyl)-4,5-dimethyl-2,3-dihydro-1H-isoindol-1-one], the “activity (%) at 10 μM” value stood at 112% and the EC50 was 47 nM.
